Experimental data from patent US12516046B2, “2-oxo-oxazolidine-5-carboxamides as NAV1.8 inhibitors” (Merck Sharp & Dohme LLC, priority 2020, dated 2026).

Target: human Nav1.8 (Homo sapiens (Human), UniProt Q9Y5Y9)
Assay: Nav1.8 Qube® Assay (automated 384-well patch-clamp)
Format: cell-based
Settings: human Nav1.8 channels stably expressed in HEK 293 cells
From the text: Qube® Assay Experimental Procedure

Sequence of human Nav1.8 (Q9Y5Y9 whole entry): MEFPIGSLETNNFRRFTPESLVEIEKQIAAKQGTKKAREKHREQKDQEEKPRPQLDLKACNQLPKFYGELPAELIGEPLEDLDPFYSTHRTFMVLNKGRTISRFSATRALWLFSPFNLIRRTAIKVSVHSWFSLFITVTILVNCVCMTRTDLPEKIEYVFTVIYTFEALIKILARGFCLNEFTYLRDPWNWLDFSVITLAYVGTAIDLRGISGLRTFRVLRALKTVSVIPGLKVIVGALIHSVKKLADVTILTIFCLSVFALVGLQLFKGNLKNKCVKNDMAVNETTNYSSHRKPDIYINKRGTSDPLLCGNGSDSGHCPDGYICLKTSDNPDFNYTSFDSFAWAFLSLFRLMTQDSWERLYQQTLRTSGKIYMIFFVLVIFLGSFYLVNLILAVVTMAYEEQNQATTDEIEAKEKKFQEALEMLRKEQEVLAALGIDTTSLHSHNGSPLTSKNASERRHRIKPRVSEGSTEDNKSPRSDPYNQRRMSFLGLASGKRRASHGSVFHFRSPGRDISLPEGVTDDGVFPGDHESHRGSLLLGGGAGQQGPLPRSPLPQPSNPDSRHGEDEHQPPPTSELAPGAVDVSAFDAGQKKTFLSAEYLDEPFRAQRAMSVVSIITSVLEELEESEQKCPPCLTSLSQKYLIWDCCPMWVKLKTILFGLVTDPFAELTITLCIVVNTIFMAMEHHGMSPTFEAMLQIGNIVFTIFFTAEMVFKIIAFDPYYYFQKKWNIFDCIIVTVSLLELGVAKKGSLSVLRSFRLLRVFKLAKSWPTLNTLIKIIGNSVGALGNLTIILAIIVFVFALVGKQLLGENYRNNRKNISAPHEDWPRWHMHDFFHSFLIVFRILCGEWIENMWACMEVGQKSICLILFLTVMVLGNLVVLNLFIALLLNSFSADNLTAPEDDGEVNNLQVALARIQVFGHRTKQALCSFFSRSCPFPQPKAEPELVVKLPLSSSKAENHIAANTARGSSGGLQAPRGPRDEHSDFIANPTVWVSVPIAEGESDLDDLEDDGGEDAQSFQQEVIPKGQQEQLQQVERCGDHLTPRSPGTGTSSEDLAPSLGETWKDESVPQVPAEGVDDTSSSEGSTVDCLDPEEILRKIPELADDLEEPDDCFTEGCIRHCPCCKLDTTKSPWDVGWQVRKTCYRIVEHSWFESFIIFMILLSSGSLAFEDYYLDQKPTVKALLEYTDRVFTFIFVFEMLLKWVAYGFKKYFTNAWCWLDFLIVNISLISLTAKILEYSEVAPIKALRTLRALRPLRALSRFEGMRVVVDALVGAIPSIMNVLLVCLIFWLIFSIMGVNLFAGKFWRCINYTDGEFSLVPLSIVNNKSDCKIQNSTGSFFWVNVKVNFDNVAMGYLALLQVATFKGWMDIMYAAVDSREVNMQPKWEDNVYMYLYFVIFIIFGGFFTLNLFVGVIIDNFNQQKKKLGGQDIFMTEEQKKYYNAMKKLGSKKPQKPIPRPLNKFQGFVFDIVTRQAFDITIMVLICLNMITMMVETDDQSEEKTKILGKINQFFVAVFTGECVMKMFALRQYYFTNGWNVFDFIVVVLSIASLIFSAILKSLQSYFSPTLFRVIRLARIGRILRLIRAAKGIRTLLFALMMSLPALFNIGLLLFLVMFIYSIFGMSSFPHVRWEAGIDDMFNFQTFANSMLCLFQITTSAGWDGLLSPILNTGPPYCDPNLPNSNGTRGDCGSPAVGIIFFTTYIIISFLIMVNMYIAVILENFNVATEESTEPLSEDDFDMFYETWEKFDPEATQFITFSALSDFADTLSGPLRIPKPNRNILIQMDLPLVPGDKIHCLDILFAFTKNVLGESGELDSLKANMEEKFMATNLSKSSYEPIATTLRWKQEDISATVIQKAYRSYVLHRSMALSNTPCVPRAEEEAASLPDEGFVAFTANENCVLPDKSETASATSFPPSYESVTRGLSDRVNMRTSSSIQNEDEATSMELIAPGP

Row | Structure (SMILES) | IC50 [µM]
1 | O=C1NC[C@@H](C(=O)NC(c2ccc(Cl)cc2)C23C4C5C6C4C2C6C53)O1 (single isomer, unassigned) [Example 56A, (S)—N—((R or S)-(4-chlorophenyl)(cuban-1-yl)methyl)-2-oxooxazolidine-5-carboxamide] | 0.229
2 | O=C1NC[C@@H](C(=O)NC(c2ccc(Cl)cc2)C23C4C5C6C4C2C6C53)O1 (single isomer, unassigned) [Example 56B, (S)—N—((R or S)-(4-chlorophenyl)(cuban-1-yl)methyl)-2-oxooxazolidine-5-carboxamide] | 0.289
3 | O=C1NC[C@@H](C(=O)NC(c2ccc(Cl)cc2)C2CCC(F)(F)C2)O1 (single isomer, unassigned) [Example 57A, (S)-N-((R or S)-(4-chlorophenyl)((R or S)-3,3-difluorocyclopentyl)methyl)-2-oxooxazolidine-5-carboxamide] | 3.45
4 | O=C1NC[C@@H](C(=O)NC(c2ccc(Cl)cc2)C2CCC(F)(F)C2)O1 (single isomer, unassigned) [Example 57B, (S)-N-((R or S)-(4-chlorophenyl)((R or S)-3,3-difluorocyclopentyl)methyl)-2-oxooxazolidine-5-carboxamide] | 5.72
5 | O=C1NC[C@@H](C(=O)NC(c2ccc(Cl)cc2)C2CCC(F)(F)C2)O1 (single isomer, unassigned) [Example 57C, (S)-N-((R or S)-(4-chlorophenyl)((R or S)-3,3-difluorocyclopentyl)methyl)-2-oxooxazolidine-5-carboxamide] | 0.903
6 | O=C1NC[C@@H](C(=O)NC(c2ccc(Cl)cc2)C2CCC(F)(F)C2)O1 (single isomer, unassigned) [Example 57D, (S)-N-((R or S)-(4-chlorophenyl)((R or S)-3,3-difluorocyclopentyl)methyl)-2-oxooxazolidine-5-carboxamide] | 1.16
7 | O=C1NC[C@@H](C(=O)NC(c2ccc(Cl)c(C(F)(F)F)n2)C2CCC(F)(F)CC2)O1 (single isomer, unassigned) [Example 63A, (S)-N-((R or S)-(5-chloro-6-(trifluoromethyl)pyridin-2-yl)(4,4-difluoro-cyclohexyl)methyl)-2-oxooxazolidine-5-carboxamide] | 0.012
8 | O=C1NC[C@@H](C(=O)NC(c2ccc(Cl)c(C(F)(F)F)n2)C2CCC(F)(F)CC2)O1 (single isomer, unassigned) [Example 63B, (S)-N-((R or S)-(5-chloro-6-(trifluoromethyl)pyridin-2-yl)(4,4-difluoro-cyclohexyl)methyl)-2-oxooxazolidine-5-carboxamide] | 0.574
9 | O=C1NC[C@@H](C(=O)NC(CCc2ccc(Cl)cc2)c2ccc(F)c(Cl)c2F)O1 (single isomer, unassigned) [Example 65A, (S)—N—((R or S)-1-(3-chloro-2,4-difluorophenyl)-3-(4-chlorophenyl)propyl)-2-oxooxazolidine-5-carboxamide] | 0.094
10 | O=C1NC[C@@H](C(=O)NC(CCc2ccc(Cl)cc2)c2ccc(F)c(Cl)c2F)O1 (single isomer, unassigned) [Example 65B, (S)—N—((R or S)-1-(3-chloro-2,4-difluorophenyl)-3-(4-chlorophenyl)propyl)-2-oxooxazolidine-5-carboxamide] | 0.011
11 | O=C1NC[C@@H](C(=O)NC(c2ccc(F)c(Cl)c2F)[C@H]2C[C@H](C(F)(F)F)C2)O1 (single isomer, unassigned) [Example 70, (S)—N—((R or S)-(3-chloro-2,4-difluorophenyl)((trans)-3-(trifluoromethyl)cyclobutyl)methyl)-2-oxooxazolidine-5-carboxamide] | 0.0054
12 | O=C1NC[C@@H](C(=O)NC(c2ccc(F)c(Cl)c2F)[C@@H]2C[C@@H]3[C@H](C2)C3(F)F)O1 (single isomer, unassigned) [Example 74A, (S)-N-((R or S)-(3-chloro-2,4-difluorophenyl) ((trans)-6,6-difluorobicyclo[3.1.0]hexan-3-yl)methyl)-2-oxooxazolidine-5-carboxamide] | 0.011
13 | O=C1NC[C@@H](C(=O)NC(c2ccc(F)c(Cl)c2F)[C@@H]2C[C@@H]3[C@H](C2)C3(F)F)O1 (single isomer, unassigned) [Example 74B, (S)-N-((R or S)-(3-chloro-2,4-difluorophenyl) ((trans)-6,6-difluorobicyclo[3.1.0]hexan-3-yl)methyl)-2-oxooxazolidine-5-carboxamide] | 0.389
14 | O=C1NC[C@@H](C(=O)NC(c2ccccc2)c2cc(Cl)cc(Cl)c2)O1 (stereo partly drawn) [Example 20, (5S)-N-((3,5-dichlorophenyl) (phenyl)methyl)-2-oxooxazolidine-5-carboxamide] | 0.032
15 | O=C1NC[C@@H](C(=O)NC(c2ccccc2)C2C3CC4CC(C3)CC2C4)O1 (stereo partly drawn) [Example 21, (5S)-N-((adamantan-2-yl)(phenyl)methyl)-2-oxooxazolidine-5-carboxamide] | 0.293

Further lines, results first:

Row | IC50 [µM] | Structure (SMILES)
16 | 0.012 | COc1ncccc1C(NC(=O)[C@@H]1CNC(=O)O1)c1ccc(F)c(Cl)c1 (single isomer, unassigned) [Example 58A, (S)-N-((R or S)-(3-chloro-4-fluorophenyl)(2-methoxypyridin-3-yl)methyl)-2-oxooxazolidine-5-carboxamide]
17 | 0.024 | COc1ncccc1C(NC(=O)[C@@H]1CNC(=O)O1)c1ccc(F)c(Cl)c1 (single isomer, unassigned) [Example 58B, (S)-N-((R or S)-(3-chloro-4-fluorophenyl)(2-methoxypyridin-3-yl)methyl)-2-oxooxazolidine-5-carboxamide]
18 | 0.171 | O=C1NC[C@@H](C(=O)NC(c2ccc(F)c(Cl)c2)c2cnn(CC(F)(F)F)c2)O1 (single isomer, unassigned) [Example 59A, (S)-N-((R or S)-(3-chloro-4-fluorophenyl)(1-(2,2,2-trifluoroethyl)-1H-pyrazol-4-yl)methyl)-2-oxooxazolidine-5-carboxamide]
19 | 0.693 | O=C1NC[C@@H](C(=O)NC(c2ccc(F)c(Cl)c2)c2cnn(CC(F)(F)F)c2)O1 (single isomer, unassigned) [Example 59B, (S)-N-((R or S)-(3-chloro-4-fluorophenyl)(1-(2,2,2-trifluoroethyl)-1H-pyrazol-4-yl)methyl)-2-oxooxazolidine-5-carboxamide]
20 | 0.231 | O=C1NC[C@@H](C(=O)NC(c2ccc(F)c(Cl)c2)c2ccn(C(F)F)n2)O1 (single isomer, unassigned) [Example 60A, (S)-N-((R or S)-(3-chloro-4-fluorophenyl)(1-(difluoromethyl)-1H-pyrazol-3-yl)methyl)-2-oxooxazolidine-5-carboxamide]
21 | 0.124 | O=C1NC[C@@H](C(=O)NC(c2ccc(F)c(Cl)c2)c2ccn(C(F)F)n2)O1 (single isomer, unassigned) [Example 60B, (S)-N-((R or S)-(3-chloro-4-fluorophenyl)(1-(difluoromethyl)-1H-pyrazol-3-yl)methyl)-2-oxooxazolidine-5-carboxamide]
22 | 0.0046 | Cn1nc(C(F)(F)F)cc1C(NC(=O)[C@@H]1CNC(=O)O1)c1ccc(F)c(Cl)c1 (single isomer, unassigned) [Example 61A, (S)-N-((R or S)-(3-chloro-4-fluorophenyl)(1-methyl-3-(trifluoromethyl)-1H-pyrazol-5-yl)methyl)-2-oxooxazolidine-5-carboxamide]
23 | 0.231 | Cn1nc(C(F)(F)F)cc1C(NC(=O)[C@@H]1CNC(=O)O1)c1ccc(F)c(Cl)c1 (single isomer, unassigned) [Example 61B, (S)-N-((R or S)-(3-chloro-4-fluorophenyl)(1-methyl-3-(trifluoromethyl)-1H-pyrazol-5-yl)methyl)-2-oxooxazolidine-5-carboxamide]
24 | 0.039 | Cn1nc(C(NC(=O)[C@@H]2CNC(=O)O2)c2ccc(F)c(Cl)c2)cc1C(F)(F)F (single isomer, unassigned) [Example 62A, (S)-N-((R or S)-(3-chloro-4-fluorophenyl)(1-methyl-5-(trifluoromethyl)-1H-pyrazol-3-yl)methyl)-2-oxooxazolidine-5-carboxamide]
25 | 0.011 | Cn1nc(C(NC(=O)[C@@H]2CNC(=O)O2)c2ccc(F)c(Cl)c2)cc1C(F)(F)F (single isomer, unassigned) [Example 62B, (S)-N-((R or S)-(3-chloro-4-fluorophenyl)(1-methyl-5-(trifluoromethyl)-1H-pyrazol-3-yl)methyl)-2-oxooxazolidine-5-carboxamide]
26 | 0.016 | N#Cc1cc(C(NC(=O)[C@@H]2CNC(=O)O2)c2ccc(F)c(Cl)c2)ccc1F (single isomer, unassigned) [Example 69, (S)-N-((R or S)-(3-chloro-4-fluorophenyl)(3-cyano-4-fluorophenyl)methyl)-2-oxooxazolidine-5-carboxamide]
27 | 0.964 | O=C1NC[C@@H](C(=O)NC(c2ccc(Cl)cc2)c2ccc(OCC(F)(F)F)nn2)O1 (single isomer, unassigned) [Example 73A, (S)-N-((R or S)-(4-chlorophenyl)(6-(2,2,2-trifluoroethoxy)pyridazin-3-yl)methyl)-2-oxooxazolidine-5-carboxamide]
28 | 0.08 | O=C1NC[C@@H](C(=O)NC(c2ccc(Cl)cc2)c2ccc(OCC(F)(F)F)nn2)O1 (single isomer, unassigned) [Example 73B, (S)-N-((R or S)-(4-chlorophenyl)(6-(2,2,2-trifluoroethoxy)pyridazin-3-yl)methyl)-2-oxooxazolidine-5-carboxamide]
29 | 0.0007 | O=C1NC[C@@H](C(=O)NC(c2ccc(F)c(Cl)c2)c2ccc(F)c(Cl)c2)O1 [Example 10, (S)-N-(bis(3-chloro-4-fluorophenyl)methyl)-2-oxooxazolidine-5-carboxamide]
30 | 0.144 | O=C1NC[C@@H](C(=O)NC(c2ccc(Cl)cc2)c2cccs2)O1 (stereo partly drawn) [Example 24, (5S)-N-((4-chlorophenyl)(thio-phen-2-yl)methyl)-2-oxooxazolidine-5-carboxamide]
31 | 0.705 | CS(=O)(=O)c1cccc(C(NC(=O)[C@@H]2CNC(=O)O2)c2ccc(Cl)cc2)c1 (stereo partly drawn) [Example 27, (5S)-N-((4-chlorophenyl)(3-(methylsulfonyl)phenyl)methyl)-2-oxooxazolidine-5-carboxamide]
